Test results published in patent US9546153B2, “Bicyclic heterocycle substituted pyridyl compounds useful as kinase modulators” (BRISTOL-MYERS SQUIBB COMPANY, priority 2012, dated 2017).
Where two headings read alike, the source gives them in different places.

Legend:
[1] = test system: TLR2 induced IL-6 in peripheral blood mononuclear cells (PBMCs); assay: PBMC TLR2 Induced IL-6 Assay; format: cell-based, human; conditions: human PBMCs, 10 μg/ml lipoteichoic acid for 5 hours, IL-6 by ELISA; for IC50: value without asterisk, read-out: Cell IC50; for EC50: EC50 determinations are indicated with an asterisk, read-out: Cell EC50 (asterisk)
Outline: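 Human PBMCs (250000 cells/well) in RPMI with 10% heat-inactivated FCS pre-treated with compound for 30 min at 37° C, then stimulated 5 h with 10 μg/ml lipoteichoic acid. Supernatant IL-6 measured by ELISA and reported as IC50 or EC50.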

[2] = target: IRAK4 (Homo sapiens (Human), UniProt Q9NWZ3); assay: IRAK4 Inhibition Assay; format: biochemical; conditions: ATP 500 μM; IRAK4 0.6 nM; 60 min at room temperature
Chain of IRAK4 (Q9NWZ3 whole entry, species assumed): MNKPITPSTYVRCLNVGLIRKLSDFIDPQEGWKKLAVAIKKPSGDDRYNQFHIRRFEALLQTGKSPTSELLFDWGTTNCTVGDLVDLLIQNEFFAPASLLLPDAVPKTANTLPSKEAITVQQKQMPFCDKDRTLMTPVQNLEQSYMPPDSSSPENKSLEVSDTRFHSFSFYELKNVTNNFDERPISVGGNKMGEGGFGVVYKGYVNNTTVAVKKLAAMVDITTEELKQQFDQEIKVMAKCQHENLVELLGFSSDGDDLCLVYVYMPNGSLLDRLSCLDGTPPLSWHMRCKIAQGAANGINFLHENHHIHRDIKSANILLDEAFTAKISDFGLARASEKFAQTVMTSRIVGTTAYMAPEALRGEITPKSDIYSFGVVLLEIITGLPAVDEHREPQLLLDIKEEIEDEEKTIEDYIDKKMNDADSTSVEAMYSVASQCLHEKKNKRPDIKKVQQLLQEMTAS
Description: The assays were performed in U-bottom 384-well plates. […] The reaction was initiated by the combination of IRAK4 with substrates and test compounds. The reaction was incubated at room temperature for 60 min. and terminated by adding 45 μL of 35 mM EDTA to each sample. The reaction mixture was analyzed on the Caliper LABCHIP® 3000 (Caliper, Hopkinton, Mass.) by electrophoretic separation of the fluorescent substrate and phosphorylated product.

IC50 [2] [nM]	Structure (SMILES)	IC50 [1] [nM]	IC50 ([1]; Homo sapiens, PBMC, 5 h) [nM]	EC50 [1] [nM]	EC50 ([1]; Homo sapiens, PBMC, 5 h) [nM]
2.7	CC(C)(O)[C@H](F)CNC(=O)c1cnc(Nc2ccn3nccc3n2)cc1NC1CCC(F)C1 (stereo partly shown) [Example 247]	170			
3.9	COc1ncnc2ccc(Nc3cc(NC4CCOCC4)c(C(=O)NC[C@@H](F)C(C)(C)O)cn3)cc12 [Example 124]		420		
4.3	CCNc1cc(Nc2ccc3ncsc3c2)ncc1C(=O)NC[C@@H](F)C(C)(C)O [Example 96]		170		
17.4	CC(=O)N[C@H]1CC[C@H](NC(=O)c2cnc(Nc3nc4ccnn4cc3F)cc2NC(C)C)CC1 [Example 512]		602		
2.5	CC(C)(O)[C@H](F)CNC(=O)c1cnc(Nc2nc3ccnn3cc2F)cc1NC1CCC(F)(F)C1 (stereo partly shown) [Example 391]	119			
13.1	CC(C)Nc1cc(Nc2ccc3ncsc3c2)ncc1C(=O)NC1CCCC(C(C)(C)O)C1 (stereo not shown) [Example 425]		560		
3.9	CC(C)(O)[C@H](F)CNC(=O)c1cnc(Nc2ccc3ncsc3c2)cc1N[C@@H](c1cc(F)cc(F)c1)[C@H](O)CO [Example 65]		170		
4.2	CC(C)(O)[C@H](F)CNC(=O)c1cnc(Nc2ccc3ncccc3n2)cc1NC1CC1 [Example 122]		207		
4.9	CCOC(=O)NC12CCC(Nc3cc(Nc4ccc5ncsc5c4)ncc3C(=O)NC[C@@H](F)C(C)(C)O)(CC1)C2 [Example 397]		197		
6.3	CC(C)Nc1cc(Nc2cnc3[nH]ccc3c2)ncc1C(=O)NC[C@@H](F)C(C)(C)O [Example 415]		502		
1.7	CC(C)(O)[C@H](F)CNC(=O)c1cnc(Nc2ccc3ncsc3c2)cc1NC1COCCC1F (stereo partly shown) [Example 235]		263		
6.4	CC(C)(O)[C@H](F)CNC(=O)c1cnc(Nc2nc3ccnn3cc2F)cc1NC1CCCCC1(F)F (stereo partly shown) [Example 496]			91	
8.2	CC(C)(F)CNc1cc(Nc2ncc3ncsc3c2F)ncc1C(=O)NC1CCC(C(C)(C)O)CC1 (stereo not shown) [Example 489]				374
17.9	CC(C)(O)[C@H](F)CNC(=O)c1cnc(Nc2ccc3ncsc3c2)cc1NCCO [Example 161]		577		
7.5	CC(C)(O)[C@H](F)CNC(=O)c1cnc(Nc2ccc3ncsc3c2)cc1NC12CCC(NC(=O)c3ccccn3)(CC1)C2 [Example 400]		119		
2.7	Cc1nc2ccc(Nc3cc(NC4CCCC4F)c(C(=O)NC[C@@H](F)C(C)(C)O)cn3)cc2s1 (stereo partly shown) [Example 350]	148			
3.4	CC(C)(O)[C@H](F)CNC(=O)c1cnc(Nc2ccc3ncsc3c2)cc1N[C@@H](c1ccccc1)[C@H](O)CO [Example 49]		444		
8.8	CC(C)(O)[C@H](F)CNC(=O)c1cnc(Nc2ccn3nccc3n2)cc1NC1COCCC1F (stereo partly shown) [Example 256]		587		
4.5	CC(C)(O)[C@H](F)CNC(=O)c1cnc(Nc2ccc3ncc(C#N)cc3n2)cc1NC1CCCOC1 (stereo partly shown) [Example 443]	125			
4.3	CC(O)([C@H](F)CNC(=O)c1cnc(Nc2ccc3ncsc3c2)cc1NC1CC1)C(F)(F)F (stereo partly shown) [Example 19]	177			
5.4	CC(C)(O)[C@H](F)CNC(=O)c1cnc(Nc2cc3nccnc3cc2F)cc1NC1CCC1 [Example 500]				228
1.5	CC(C)Nc1cc(Nc2ccc3ncc(F)cc3n2)ncc1C(=O)NC[C@@H](F)C(C)(C)O [Example 427]		42		
2.9	CC(C)(O)[C@H](F)CNC(=O)c1cnc(Nc2ccc3ncsc3c2)cc1NC1CCC(F)C1 (single isomer, unassigned) [Example 362, 6-(benzo[d]thiazol-6-ylamino)-N-(2-fluoro-3-hydroxy-3-methylbutyl)-4-(3-fluorocyclopentylamino)nicotinamide]	44			
2.7	CC(C)(F)CNc1cc(Nc2ccc3ncsc3n2)ncc1C(=O)NC[C@@H](F)C(C)(C)O [Example 314]		115		
3	CC(C)(O)[C@H](F)CNC(=O)c1cnc(Nc2ccc3ncsc3c2)cc1N[C@@H]1CCCC1F (stereo partly shown) [Example 343]	114			
3.1	CC(C)(O)[C@H](F)CNC(=O)c1cnc(Nc2ccc3ncccc3n2)cc1NC1CCOCC1F (stereo partly shown) [Example 439]	64			
2.2	CC(C)(O)[C@H](F)CNC(=O)c1cnc(Nc2nc3ccnn3cc2F)cc1NC1CCC(F)C1 (stereo partly shown) [Example 478]	50			

IC50 [2] [nM]	Structure (SMILES)	IC50 [1] [nM]	IC50 ([1]; Homo sapiens, PBMC, 5 h) [nM]	EC50 [1] [nM]	EC50 ([1]; Homo sapiens, PBMC, 5 h) [nM]
1.9	CCC(C)Nc1cc(Nc2ccc3ncsc3c2)ncc1C(=O)NC[C@@H](F)C(C)(C)O (stereo partly shown) [Example 138]	302			
10.7	CC(C)(O)[C@H](F)CNC(=O)c1cnc(Nc2ccc3ncsc3c2)cc1Nc1ccc(C(=O)NCC(F)(F)F)cc1 [Example 324]		190		
2.9	O=C(NC1CCC(O)CC1)c1cnc(Nc2ccc3ncsc3c2)cc1NC1CCCC1F (stereo not shown) [Example 353]	112			
1	CC(C)Nc1cc(Nc2ccn3ncc(F)c3c2)ncc1C(=O)NC[C@@H](F)C(C)(C)O [Example 288]		134		
3.4	CC(CO)Nc1cc(Nc2nc3scnc3cc2F)ncc1C(=O)NC[C@@H](F)C(C)(C)O (stereo partly shown) [Example 459]	141			
2.3	CC(C)(O)[C@H](F)CNC(=O)c1cnc(Nc2ccc3ncsc3c2)cc1NC12CCC(N)(CC1)C2 [Example 140]		219		
4	CC(C)Nc1cc(Nc2ccc3ncoc3c2)ncc1C(=O)NC[C@@H](F)C(O)C(C)C (stereo partly shown) [Example 24]		468		
21.7	CC(C)(O)[C@H](F)CNC(=O)c1cnc(Nc2ccc3nonc3c2)cc1NCC(F)(F)F [Example 100]		830		
6.6	CCC(C)Nc1cc(Nc2ccn3nccc3n2)ncc1C(=O)NC[C@@H](F)C(C)(C)O (stereo partly shown) [Example 388]	234			
4.3	CC(C)Nc1cc(Nc2ccc3ncsc3c2)ncc1C(=O)NCC(F)(F)C(C)(C)O [Example 171]		571		
3.4	CC(C)Nc1cc(Nc2ccc3ncsc3c2)ncc1C(=O)NC12CCC(C(=O)NCC(C)(C)O)(CC1)CC2 [Example 226]		274		
1.5	CC(C)Nc1cc(Nc2ccc3ncsc3c2)ncc1C(=O)NC1CCC2(CC1)NC(=O)NC2=O (stereo not shown) [Example 525, 6-(benzo[d]thiazol-6-ylamino)-N-(2,4-dioxo-1,3-diazaspiro[4.5]decan-8-yl)-4-(isopropylamino)nicotinamide]				131
7	CC(C)(O)[C@H](F)CNC(=O)c1cnc(Nc2ccn3nccc3c2)cc1NCCC1CC1 [Example 292]		427		
3.1	CC(C)(F)CNc1cc(Nc2ccn3ncc(F)c3c2)ncc1C(=O)NC[C@@H](F)C(C)(C)O [Example 301]		190		
17.4	CNC(=O)c1cnc(Nc2ccc3ncsc3c2)cc1NC1C2CC3CC1CC(O)(C3)C2 (single isomer, unassigned) [Example 147]	507			
2	CC(C)(O)[C@H](F)CNC(=O)c1cnc(Nc2ncc3ncccc3n2)cc1NC1CCC(F)C1 (stereo partly shown) [Example 447]	1250			
2	CC(C)(O)[C@H](F)CNC(=O)c1cnc(Nc2nc3scnc3cc2F)cc1NC1CCCC1F (stereo partly shown) [Example 461]		147		
3.9	CC(C)(O)[C@H](F)CNC(=O)c1cnc(Nc2cc3scnc3cn2)cc1NC1CC1 [Example 315]		426		
11.3	CC(C)(O)[C@H](F)CNC(=O)c1cnc(Nc2nc3ccnn3cc2F)cc1NC1CCCOC1 (stereo partly shown) [Example 422]		753		
34.9	CC(C)(O)[C@H](F)CNC(=O)c1cnc(Nc2ccc3ncsc3c2)cc1NCCN1CCOCC1 [Example 164]		388		
15.2	CC(C)(O)[C@H](F)CNC(=O)c1cnc(Nc2nc3ccnn3cc2F)cc1NC1CCCCC1(F)F (stereo partly shown) [Example 497]			299	
2.5	CC(C)(O)[C@H](F)CNC(=O)c1cnc(Nc2ccc3ncsc3c2)cc1NC1CCC(F)C1 (single isomer, unassigned) [Example 363, 6-(benzo[d]thiazol-6-ylamino)-N-(2-fluoro-3-hydroxy-3-methylbutyl)-4-(3-fluorocyclopentylamino)nicotinamide]	87			
3.4	CNC(=O)C12CCC(NC(=O)c3cnc(Nc4ccc5ncsc5c4)cc3NC(C)C)(CC1)CC2 [Example 229]		488		
3.4	CC(C)(O)[C@H](F)CNC(=O)c1cnc(Nc2cc3scnc3cc2F)cc1NCC(F)(F)F [Example 515]		450		
2.5	CC1CCCC1Nc1cc(Nc2ccc3ncsc3c2)ncc1C(=O)NC[C@@H](F)C(C)(C)O (stereo partly shown) [Example 104]		350		
7.2	CC(C)(O)[C@H](F)CNC(=O)c1cnc(Nc2ccc3nonc3c2)cc1N[C@@H]1CCCC1F (stereo partly shown) [Example 357]	399			
